Experimental data published in patent US20040063746A1, “Indole, azaindole and related heterocyclic ureido and thioureido piperazine derivatives” (priority 2002, published 2004).

Tested on: HIV-1 single-round infectious reporter virus
Experiment: microbe, parasite or virus in culture
Type: cell-based
Details: Human immunodeficiency virus 1, HeLa, 72 h, read-out: EC50 Group from Table 1
Method: Virus production-Human embryonic Kidney cell line, 293T, was propagated in Dulbecco's Modified Eagle Medium (Invitrogen, Carlsbad, Calif.) containing 10% fetal Bovine serum (FBS, Sigma, St. Louis, Mo.).
Virus infection—Human epithelial cell line, HeLa, expressing the HIV-1 receptor CD4 was propagated in Dulbecco's Modified Eagle Medium (Invitrogen, Carlsbad, Calif.) containing 10% fetal Bovine serum (FBS, Sigma, St. Louis, Mo.) and supplemented with 0.2 mg/mL Geneticin (Invitrogen, Carlsbad, Calif.).
Virus-Single-round infectious reporter virus was produced by co-transfecting human embryonic Kidney 293 cells with an HIV-1 envelope DNA expression vector and a proviral cDNA containing an envelope deletion mutation and the luciferase reporter gene inserted in place of HIV-1 nef sequences (Chen et al, Ref. 41). Transfections were performed using lipofectAMINE PLUS reagent as described by the manufacturer (Invitrogen, Carlsbad, Calif.).
1. HeLa CD4 cells were plated in 96 well plates at a cell density of 1×10^4 cells per well in 100 μl Dulbecco's Modified Eagle Medium containing 10% fetal Bovine serum and incubated overnight.
2. Compound was added in a 2 μl dimethylsulfoxide solution, so that the final assay concentration would be ≦10 μM.
3. 100 μl of single-round infectious reporter virus in Dulbecco's Modified Eagle Medium was then added to the plated cells and compound at an approximate multiplicity of infection (MOI) of 0.01, resulting in a final volume of 200 μl per well.
4. Virally-infected cells were incubated at 37 degrees Celsius, in a CO2 incubator, and harvested 72 h after infection.
5. Viral infection was monitored by measuring luciferase expression from viral DNA in the infected cells using a luciferase reporter gene assay kit, as described by the manufacturer (Roche Molecular Biochemicals, Indianapolis, Ind.). Infected cell supernatants were removed and 50 μl of lysis buffer was added per well. After 15 minutes, 50 μl of freshly-reconstituted luciferase assay reagent was added per well. Luciferase activity was then quantified by measuring luminescence using a Wallac microbeta scintillation counter.
7. An EC50 provides a method for comparing the antiviral potency of the compounds of this invention. The effective concentration for fifty percent inhibition (EC50) was calculated with the Microsoft Excel Xlfit curve fitting software. For each compound, curves were generated from percent inhibition calculated at 10 different concentrations by using a four paramenter logistic model (model 205). Table 1 is the key for the data in Table 2.

SMILES: CNC(=O)c1ccc(F)c2c(C(=O)C(=O)N3CCN(C(=O)N(C)C)CC3)c[nH]c12 [Example 2]
- EC50: < 1000 nM

SMILES: CNC(=O)c1ccc(F)c2c(C(=O)C(=O)N3CCN(C(=O)N4CCCC4)CC3)c[nH]c12 [Example 15]
- EC50: 1000 to 5000 nM

SMILES: CNC(=O)c1ccc(F)c2c(C(=O)C(=O)N3CCN(C(=O)N(C)c4ccccc4)CC3)c[nH]c12 [Example 4]
- EC50: 1000 to 5000 nM

SMILES: COC(=O)c1ccc(F)c2c(C(=O)C(=O)N3CCN(C(=O)N(C)C)CC3)c[nH]c12 [Example 1]
- EC50: 1000 to 5000 nM

SMILES: CNC(=O)c1ccc(F)c2c(C(=O)C(=O)N3CCN(C(=S)N(C)C)CC3)c[nH]c12 [Example 3]
- EC50: < 1000 nM

SMILES: CN(C)C(=O)N1CCN(C(=O)C(=O)c2c[nH]c3c(-n4cncn4)ncc(F)c23)CC1 [Example 9]
- EC50: < 1000 nM

SMILES: CCCCNC(=S)N1CCN(C(=O)C(=O)c2c[nH]c3c(C(=O)NC)ccc(F)c23)CC1 [Example 8]
- EC50: > 5000 nM

SMILES: CNC(=O)c1ccc(F)c2c(C(=O)C(=O)N3CCN(C(=O)N(C(C)C)C(C)C)CC3)c[nH]c12 [Example 6]
- EC50: > 5000 nM

SMILES: CNC(=O)c1ccc(F)c2c(C(=O)C(=O)N3CCN(C(=O)NC(C)(C)C)CC3)c[nH]c12 [Example 7]
- EC50: > 5000 nM

SMILES: CCN(CC)C(=O)N1CCN(C(=O)C(=O)c2c[nH]c3c(C(=O)NC)ccc(F)c23)CC1 [Example 5]
- EC50: 1000 to 5000 nM
